These results are taken from the NIST ThermoML archive (doi:10.1021/je060333x).

± gives the expanded uncertainty stated by the source.

The series is described as follows: molar enthalpy of transition or fusion. As to conditions: 352 K; Crystal; DSC.

In the case of `OCCCCCCCCCCCCO` [1,12-dihydroxydodecane], the “molar enthalpy of transition or fusion” value is 12.2 ± 0.454 kcal/mol.
